Assay results: US20080108545A1, “Peptide Nucleic Acid Conjugates and Uses Thereof” (UNIVERSITY OF OTAGO, priority 2003, published 2008)

Experiments:
[1] = system: P388 leukemia cancer cells; assay: General cell proliferation of treated P388 cells; format: cell-based, mouse; details: 1 μM
Excerpt: To investigate the biological effects of the anti-PAX2 TPP-fluPNA conjugate we used a mouse cell line that highly expresses the PAX2 protein. […] This is most likely due to the absence of the cation that effectively delivers the PNA to the cells.

[2] = system: PAX2 mRNA; assay: Down regulation of PAX2 protein expression (western blot) in P388 cells; format: cell-based, mouse; details: 1 μM; for PAX2 protein expression: over 4 days
Procedure: Rabbit anti-PAX2 polyclonal antibody (Zymed) diluted 1:1000 in TBS, 0.1% fat free milk powder, 0.1% Tween-20 was used for PAX-2 detection following overnight incubation with the membrane. After 3×10 min washes in TBS, 0.1% Tween-20, horseradish peroxidase conjugated goat antirabbit IgG (1:10,000, Biorad) was used as a secondary antibody. To detect biotin, horse radish peroxidase conjugated extravidin (1:3,000, Sigma) was used. In both cases secondary antibody binding was carried out for 1 h at room temperature, followed by 3×10 min washes in TBS and visualized by chemiluminescence using a Pierce Super Signal R chemiluminescence substrate with Kodak X-OMAT™ AR imaging film.

[3] = system: human fibroblasts; assay: Confocal immunofluorescent microscopy of fixed fibroblasts; format: cell-based; details: 1 μM, 30 min, 1 h and up to 4 h
Procedure: For immunocytochemistry trypsinised human fibroblasts (5,000 cells per well) were plated onto 13 mm diameter glass coverslips in 24 well plates overnight. Following incubation for 4 h at 37° C. with 1 μM TPP-PNA conjugates, cells were fixed with 4% paraformaldehyde (PFH) in TBS for 30 min, washed with TBS and incubated with 10% FCS/0.1% Triton X-100/TBS (TBST) for 10 min. The IgG fraction of anti-triphenylphosphonium serum (1:500) was diluted in TBST, then added and incubated overnight at 4° C. The IgG fraction of preimmune serum was used as a control. After washing with TBS (3×5 min) the cells were incubated with anti-rabbit IgG Oregon green fluorophore-conjugated secondary antibody diluted 1:100 in TBS for 15 min in the dark. The cells were washed in TBS and incubated for another 15 min with streptavidin conjugated CY3 (1:200, Molecular Probes) in the dark, to detect biotin. Cells were then washed in TBS, mounted in DABCO/PVA medium (15 g PVA, 15 g 1,4-diazabicyclo (2,2,2) octane in 30% glucerol in 0.1 M Tris, pH 8.5) and mounted onto coverslips. […]
The localisation of TPP-PNA conjugate within human fibroblasts was also determined by fixing cells that had been incubated with TPP-PNA, PNA or without any additions for up to 4 h and visualising the localisation of the PNA by confocal immunofluorescent microscopy (FIG. 6). […]

[4] = system: P388 cells; assay: Gel/blot detection of PNA and phosphonium in fractions of conjugate-treated P388 cells; format: cell-based, mouse; details: after treatment with TPP-PNA, FIG. 5D
Procedure: Cells (143B, human fibroblasts, COS-7, P388 and IMCD) were grown at 37° C. and 5% CO2 in humidified atmosphere in Dulbecco's modified Eagle's medium supplemented with 10% inactivated foetal calf serum (FCS). All cell culture media contained 100 units.mL^−1 penicillin, and 100 μg.mL^−1 streptomycin. Protein was quantitated by the bicinchoninic acid assay. Cells were incubated with 1 μM TPP-PNA or with PNA alone for the indicated times. The disulfide bond in the TPP-PNA is stable in the oxidizing extracellular environment but is labile in the reducing cytoplasmic mulieu (FIG. 1).
For conjugate detection, 143B cell lysates treated with TPP-PNA conjugates (˜5 nmol) in 20 μL loading buffer (50 mM Tris, 4% SDS, 12% glycerol, 2% 2-mercaptoethanol, 0.01% coomassie brilliant blue) were separated on 18.5% Tris-tricine gels using a BioRad Mini Protean system (Schagger and von Jagow, 1987). For PAX-2 detection, P388 and IMCD cell lysates in loading buffer were resolved on 12.5% Tris-glycine gels (Laemmli, 1970). […]
The P388 cells were treated as described before, the lysates were resolved on Tris-tricine gels and the TPP-fluPNA conjugates were detected using a GelDoc fluorescence imager. […]

[5] = system: HNF4α pre-mRNA; assay: RT-PCR of HNF4α mRNA, exon 9 skipping in BNL-CL2 liver cells; format: cell-based, mouse
Procedure: A mouse liver cell line, BNL-CL2, was grown at 37° C. and 5% CO2 in humidified atmosphere in Dulbecco's Modified Eagle's Medium supplemented with 10% inactivated FBS, 100 units.mL−1 penicillin, and 100 μg.mL−1 streptomycin, but without sodium pyruvate. To culture the cells with PNA, cells were seeded into a 96-well-plate, followed 16 h later by addition of 1 μM TPP-fluPNA alone or in an aqueous solution of 150 μM Chloroquine, and cultured for another 70 h. Images were acquired using a Zeiss inverted confocal microscope with 488 nm excitation wavelength light for tracking the TPP-fluPNA. Mitochondria specific dye MitoTracker Red CMXRos was added into cultured medium 2 h before taking confocal images using 578 nm excitation wavelength light.
Total RNA was extracted from cells cultured with either fluoresceinated or non-fluoresceinated TPP-PNA, or with PNA dissolved in 150 μM Chloroquine, or with medium controls for 24 h or 72 h. The concentration of extracted RNA was quantified using a NanoDrop spectrophotometer, and 1 μg of total RNA was reverse transcribed into cDNA using Invitrogen SuperScript III and random primers. […]. […]

For “TPP-fluPNA(PAX-2): Fluoroscein-XX-TTCACACCCCCGTGCC-X-Cys-CO2H PNA targeting PAX2 mRNA, disulfide linked to thiobutyltriphenylphosphonium (all peptide nucleic acid (PNA); 5' fluorescein via linkers, 3' linker-Cys disulfide-linked to triphenylphosphonium)”, the General cell proliferation [1] was “did not affect general cell proliferation”, the “Duration of inhibition of PAX2 expression” value [2] was 4 days and the PAX2 protein expression [2] was “significant inhibition of PAX2 expression”.
In the case of “Biotin-XX-GTTGGCTCTCT-X-Cys-CO2H [bioPNA]”, the “Uptake of unconjugated PNA” value [3] is reported as “uptake (red) only after 4 h”.
For thiobutyltriphenylphosphonium [TBTP], the “Localisation of phosphonium cation, anti-phosphonium serum” value [4] was “detected in the mitochondrial fractions”.
In the case of “TPP-lysPNA(HNF4-α): Lys-GTCCCAGACGGT-Cys-COOH PNA targeting mouse HNF4α mRNA, conjugated with TBTP”, the “Exon 9-skipped splice variant RT-PCR product” value ([5]; 1 μM in cell culture media for 70 h, no transfection reagent) is reported as “A 352 bp RT-PCR product was observed” and the “Exon 9-skipped splice variant RT-PCR product” value ([5]; transfected using chloroquine) is reported as “A 352 bp RT-PCR product was observed”.
In the case of “Fluoroscein-XX-TTCACACCCCCGTGCC-X-Cys-CO2H (5' fluorescein via linkers, 3' linker and cysteine, further chemistry not given here) [unmodified anti-PAX2 PNA, unconjugated fluoroscein-tagged PNA oligomer targeting human and mouse PAX2 mRNA, reference compound]”, the PAX2 protein expression [2] is reported as “did not decrease PAX2 protein levels”.
